Measurements taken from US12565490B2, “Inhibitors of Receptor Interacting Protein Kinase I for the treatment of disease” (Board of Regents, The University of Texas System, priority 2020, dated 2026).
pIC50: −log10 of the molar value.

The molecules below were run on human monocytic cell line U937 (assay: Human U937 cellular necroptosis assay). Details: U-937; U937 cells stimulated with 25 ng/mL human TNFalpha and 25 μM z-VAD-FMK; 22 hr; viability by Cell Titer-Glo 2.0; read-out: hU937 IC50.
Format: cell-based
In short: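 U937 cells (5000/well) driven to necroptosis by 25 ng/mL human TNFalpha plus 25 μM z-VAD-FMK alongside 1:3-diluted compounds, 22 hr at 37° C, 5% CO2. Viability by CellTiter-Glo luminescence; IC50 from four-parameter logistic fit.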
Molecule `COc1cnc(C(=O)N[C@H]2COc3cc(Cl)cnc3N(C)C2=O)nc1-c1ccccc1` [Example 125, (S)-N-(8-chloro-5-methyl-4-oxo-2,3,4,5-tetrahydro-pyrido[3,2-b][1,4]oxazepin-3-yl)-5-methoxy-4-phenylpyrimidine-2-carboxamide] has a pIC50 of 6.89.
`CN1C(=O)[C@@H](NC(=O)c2ncc(Cl)c(-c3ccccc3F)n2)COc2cc(Cl)cnc21` [Example 94, (S)-5-chloro-N-(8-chloro-5-methyl-4-oxo-2,3,4,5-tetrahydropyrido[3,2-b]-[1,4]oxazepin-3-yl)-4-(2-fluorophenyl)pyrimidine-2-carboxamide] was tested, and the pIC50 was 7.87.
Molecule `Cc1ccc(C(=O)N[C@H]2COc3cc(C#N)ccc3N(C)C2=O)nc1Br` [Example 33, (S)-6-bromo-N-(8-cyano-5-methyl-4-oxo-2,3,4,5-tetrahydro-benzo[b][1,4]oxazepin-3-yl)-5-methylpicolinamide] has a pIC50 of at most 5.00.
`O=C(N[C@H]1COc2cc(F)cnc2NC1=O)c1ncc(Cl)c(-c2ccc(F)cc2F)n1` [Example 167, (S)-5-chloro-4-(2,4-difluorophenyl)-N-(8-fluoro-4-oxo-2,3,4,5-tetrahydropyrido[3,2-b][1,4]oxazepin-3-yl)pyrimidine-2-carboxamide] was tested, and the pIC50 was 6.33.
Work on `CN1C(=O)[C@@H](NC(=O)c2ncc(Cl)c(-c3ccccc3Cl)n2)COc2cc(F)cnc21` [Example 80, (S)-5-chloro-4-(2-chlorophenyl)-N-(8-fluoro-5-methyl-4-oxo-2,3,4,5-tetrahydropyrido[3,2-b]-[1,4]oxazepin-3-yl)pyrimidine-2-carboxamide] yielded a pIC50 of 7.82.
Work on `Cc1ccc(C(=O)N[C@H]2COc3cc(C#N)ccc3N(C)C2=O)nc1-c1ccc(F)cc1` [Example 36, (S)-N-(8-cyano-5-methyl-4-oxo-2,3,4,5-tetrahydro-benzo[b][1,4]oxazepin-3-yl)-6-(4-fluorophenyl)-5-methyl-picolinamide] yielded a pIC50 of 6.58.
Work on `[2H]C([2H])([2H])N1C(=O)[C@@H](NC(=O)c2ncc(Cl)c(-c3cccc(F)c3F)n2)COc2cc(F)cnc21` [Example 168, (S)-5-chloro-4-(2,3-difluorophenyl)-N-(8-fluoro-5-(methyl-d3)-4-oxo-2,3,4,5-tetrahydropyrido[3,2-b][1,4]oxazepin-3-yl)pyrimidine-2-carboxamide] yielded a pIC50 of 7.34.
Molecule `CN1C(=O)[C@@H](NC(=O)c2ncc(Cl)c(-c3ccc(F)cc3F)n2)COc2ccc(NCC3(CCl)CCOCC3)cc21` [Example 141, (S)-5-chloro-N-(7-(((4-(chloromethyl)tetrahydro-2H-pyran-4-yl)methyl)amino)-5-methyl-4-oxo-2,3,4,5-tetrahydrobenzo[b]-[1,4]oxazepin-3-yl)-4-(2,4-difluorophenyl)pyrimidine-2-carboxamide] has a pIC50 of 7.84.
`CN1C(=O)[C@@H](NC(=O)c2ncc(Cl)c(-c3cccc(F)c3F)n2)COc2cc(F)cnc21` [Example 72, (S)-5-chloro-4-(2,3-difluorophenyl)-N-(8-fluoro-5-methyl-4-oxo-2,3,4,5-tetrahydropyrido[3,2-b]-[1,4]oxazepin-3-yl)pyrimidine-2-carboxamide] gave a pIC50 of 7.59.
With `Cc1ccc(-c2nc(C(=O)N[C@H]3COc4cccnc4N(C)C3=O)ncc2Cl)cc1F` [Example 54, (S)-5-chloro-4-(3-fluoro-4-methylphenyl)-N-(5-methyl-4-oxo-2,3,4,5-tetrahydro-pyrido[3,2-b][1,4]oxazepin-3-yl)pyrimidine-2-carboxamide] the pIC50 was 7.87.
`Cc1ccc(-c2nc(C(=O)N[C@H]3COc4cc(F)cnc4N(C)C3=O)ncc2Cl)c(F)c1` [Example 77, (S)-5-chloro-4-(2-fluoro-4-methylphenyl)-N-(8-fluoro-5-methyl-4-oxo-2,3,4,5-tetrahydropyrido[3,2-b]-[1,4]oxazepin-3-yl)pyrimidine-2-carboxamide] gave a pIC50 of 8.04.
In the case of `Cc1cnc(C(=O)N[C@H]2COc3cc(C#N)ccc3N(C)C2=O)nc1-c1ccccc1` [Example 5, (S)-N-(8-cyano-5-methyl-4-oxo-2,3,4,5-tetrahydro-benzo[b][1,4]oxazepin-3-yl)-5-methyl-4-phenylpyrimidine-2-carboxamide], the pIC50 was 7.82.
In the case of `Cc1ccc(-c2nc(C(=O)N[C@H]3COc4cccnc4N(C)C3=O)ncc2C)c(F)c1` [Example 61, (S)-4-(2-fluoro-4-methylphenyl)-5-methyl-N-(5-methyl-4-oxo-2,3,4,5-tetrahydropyrido[3,2-b]-[1,4]oxazepin-3-yl)pyrimidine-2-carboxamide], the pIC50 was 7.79.
With `CN1C(=O)[C@@H](NC(=O)c2ncc(Cl)c(-c3cc(F)cc(F)c3)n2)COc2cc(F)cnc21` [Example 76, (S)-5-chloro-4-(3,5-difluorophenyl)-N-(8-fluoro-5-methyl-4-oxo-2,3,4,5-tetrahydropyrido [3,2-b]-[1,4]oxazepin-3-yl)pyrimidine-2-carboxamide] the pIC50 was 7.78.
Work on `Cc1ccc(C(=O)Nc2cccc(Cl)c2F)nc1Br` [Example 25, 6-bromo-N-(3-chloro-2-fluorophenyl)-5-methyl-picolinamide] yielded a pIC50 of at most 5.00.
`Cc1cnc(C(=O)N[C@H]2COc3cc(Cl)cnc3N(C)C2=O)nc1-c1ccc2nccn2c1` [Example 124, (S)-N-(8-chloro-5-methyl-4-oxo-2,3,4,5-tetrahydropyrido[3,2-b][1,4]oxazepin-3-yl)-4-(imidazo[1,2-a]pyridin-6-yl)-5-methylpyrimidine-2-carboxamide] showed a pIC50 of 6.78.
With `Cc1cnn(-c2ccc3c(c2)N(C)C(=O)[C@@H](NC(=O)c2ncc(Cl)c(-c4ccc(F)cc4F)n2)CO3)c1` [Example 152, (S)-5-chloro-4-(2,4-difluorophenyl)-N-(5-methyl-7-(4-methyl-1H-pyrazol-1-yl)-4-oxo-2,3,4,5-tetrahydrobenzo[b]-[1,4]oxazepin-3-yl)pyrimidine-2-carboxamide] the pIC50 was 7.53.
Molecule `Cc1cc(-c2nc(C(=O)N[C@H]3COc4cc(F)cnc4N(C)C3=O)ncc2Cl)ccc1F` [Example 79, (S)-5-chloro-4-(4-fluoro-3-methylphenyl)-N-(8-fluoro-5-methyl-4-oxo-2,3,4,5-tetrahydropyrido[3,2-b]-[1,4]oxazepin-3-yl)pyrimidine-2-carboxamide] has a pIC50 of 7.72.
Work on `CN1C(=O)[C@@H](NC(=O)c2ncc(Cl)c(-c3ccc(F)c(F)c3)n2)COc2cc(Cl)cnc21` [Example 97, (S)-5-chloro-N-(8-chloro-5-methyl-4-oxo-2,3,4,5-tetrahydropyrido[3,2-b]-[1,4]oxazepin-3-yl)-4-(3,4-difluorophenyl)pyrimidine-2-carboxamide] yielded a pIC50 of 7.96.
With `Cc1cnc(C(=O)N[C@H]2COc3cccnc3N(C)C2=O)nc1-c1ccc(F)c(F)c1` [Example 21, (S)-4-(3,4-difluorophenyl)-5-methyl-N-(5-methyl-4-oxo-2,3,4,5-tetrahydropyrido[3,2-b][1,4]oxazepin-3-yl)pyrimidine-2-carboxamide] the pIC50 was 7.83.
In the case of `CN1C(=O)[C@@H](NC(=O)c2ncc(Cl)c(-c3ccccc3)n2)COc2cc(Cl)cnc21` [Example 93, (S)-5-chloro-N-(8-chloro-5-methyl-4-oxo-2,3,4,5-tetrahydropyrido[3,2-b]-[1,4]oxazepin-3-yl)-4-phenylpyrimidine-2-carboxamide], the pIC50 was 8.21.
`CN1C(=O)[C@@H](NC(=O)c2ncc(Cl)c(-c3ccc(F)cc3)n2)COc2cc(F)cnc21` [Example 71, (S)-5-chloro-N-(8-fluoro-5-methyl-4-oxo-2,3,4,5-tetrahydropyrido[3,2-b]-[1,4]oxazepin-3-yl)-4-(4-fluorophenyl)pyrimidine-2-carboxamide] showed a pIC50 of 8.05.
`Cc1cnc(C(=O)N[C@@H]2C(=O)N(C)c3ncccc3O[C@@H]2C)nc1-c1ccccc1` [Example 16, N-((2R,3S)-2,5-dimethyl-4-oxo-2,3,4,5-tetrahydropyrido[3,2-b][1,4]oxazepin-3-yl)-5-methyl-4-phenylpyrimidine-2-carboxamide] showed a pIC50 of 7.44.
For `Cc1cnc(C(=O)N[C@H]2CCc3ccccc3NC2=O)nc1-c1ccc(F)cc1` [Example 9, (S)-4-(4-fluorophenyl)-5-methyl-N-(2-oxo-2,3,4,5-tetrahydro-1H-benzo[b]azepin-3-yl)pyrimidine-2-carboxamide], the pIC50 was 7.99.
Work on `Cc1cnc(C(=O)N[C@H]2COc3cc(Cl)cnc3N(C)C2=O)nc1-c1cnccn1` [Example 123, (S)-N-(8-chloro-5-methyl-4-oxo-2,3,4,5-tetrahydro-pyrido[3,2-b][1,4]oxazepin-3-yl)-5-methyl-4-(pyrazin-2-yl)-pyrimidine-2-carboxamide] yielded a pIC50 of 7.31.
`CN1C(=O)[C@@H](NC(=O)c2ncc(Cl)c(-c3cccc4[nH]ncc34)n2)COc2cc(Cl)cnc21` [Example 114, (S)-5-chloro-N-(8-chloro-5-methyl-4-oxo-2,3,4,5-tetrahydropyrido[3,2-b]-[1,4]oxazepin-3-yl)-4-(1H-indazol-4-yl)pyrimidine-2-carboxamide] was tested, and the pIC50 was 7.20.
`Cc1cnc(C(=O)N[C@H]2COc3cc(Cl)cnc3N(C)C2=O)nc1-c1ccncc1F` [Example 120, (S)-N-(8-chloro-5-methyl-4-oxo-2,3,4,5-tetrahydro-pyrido[3,2-b][1,4]oxazepin-3-yl)-4-(3-fluoropyridin-4-yl)-5-methylpyrimidine-2-carboxamide] was tested, and the pIC50 was 6.87.
Work on `C[C@H]1Oc2cccnc2N(C)C(=O)[C@H]1NC(=O)c1ncc(Cl)c(-c2ccc(F)cc2F)n1` [Example 55, 5-chloro-4-(2,4-difluorophenyl)-N-((2R,3S)-2,5-dimethyl-4-oxo-2,3,4,5-tetrahydropyrido[3,2-b]-[1,4]oxazepin-3-yl)pyrimidine-2-carboxamide] yielded a pIC50 of 7.46.
Work on `CN1C(=O)[C@@H](NC(=O)c2ncc(Cl)c(-c3cc(F)ccc3F)n2)COc2ccc(N3CC4(CCOCC4)C3)cc21` [Example 144, (S)-5-chloro-4-(2,5-difluorophenyl)-N-(5-methyl-4-oxo-7-(7-oxa-2-azaspiro[3.5]nonan-2-yl)-2,3,4,5-tetrahydrobenzo[b]-[1,4]oxazepin-3-yl)pyrimidine-2-carboxamide] yielded a pIC50 of 7.80.
